From patent US20260028354A1, “TETRAHYDRONAPHTHALENE DERIVATIVES AS ESTROGEN RECEPTOR DEGRADERS” (REGENT OF THE UNIVERSITY OF MICHIGAN, priority 2022, published 2026)
Where two headings read alike, the source gives them in different places.

Columns and labels:
ER = ER (Homo sapiens (Human), UniProt P03372); assay: In-cell western blot analysis of ER for "B" compounds; format: cell-based; details: 16 hours, read-out: ICW DC50
Summary of the method: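 ER levels given as a percentage of untreated/DMSO-treated wells (100%). Detection used primary antibodies for 2 h at room temperature followed by 680 and 800 nm fluorescent secondaries at 1:1000 for 1 h, read by LI-COR imaging.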

[1] = Cell growth assay (WST-8) for "B" compounds; format: cell-based; details: T47D, read-out: Cell growth Inhibition in T47D cell line IC50
Summary of the method: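 Four-day compound exposure of cells plated at 1500/well the day before. Read-out is WST-8 (10%, 2.5 h, 37 °C) absorbance at 450 nm, normalized to vehicle control over three independent repeats.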

Chain of ER (P03372 whole entry): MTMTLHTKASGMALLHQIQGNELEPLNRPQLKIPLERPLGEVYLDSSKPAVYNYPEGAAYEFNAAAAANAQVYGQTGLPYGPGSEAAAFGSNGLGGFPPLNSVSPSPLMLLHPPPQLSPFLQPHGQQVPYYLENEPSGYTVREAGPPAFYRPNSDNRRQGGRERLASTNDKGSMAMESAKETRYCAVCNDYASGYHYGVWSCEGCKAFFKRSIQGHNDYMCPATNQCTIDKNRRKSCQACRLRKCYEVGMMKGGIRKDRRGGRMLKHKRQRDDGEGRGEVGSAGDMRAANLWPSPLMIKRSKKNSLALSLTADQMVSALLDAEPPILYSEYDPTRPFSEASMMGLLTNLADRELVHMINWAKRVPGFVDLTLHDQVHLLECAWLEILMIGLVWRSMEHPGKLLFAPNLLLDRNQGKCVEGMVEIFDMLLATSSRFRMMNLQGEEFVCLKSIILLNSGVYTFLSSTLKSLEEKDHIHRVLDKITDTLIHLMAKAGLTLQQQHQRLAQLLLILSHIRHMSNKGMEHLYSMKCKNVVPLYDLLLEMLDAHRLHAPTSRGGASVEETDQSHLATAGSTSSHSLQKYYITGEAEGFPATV

SMILES	DC50 (ER) [nM]	IC50 [1] [nM]	IC50 ([1]; T47D cell line) [nM]
O=C1CCC(N2Cc3c(ccc4c3OCC43CCN(CC4CCC5(CCN(c6ccc([C@@H]7c8ccc(O)cc8CC[C@@H]7c7ccccc7)cc6)CC5)O4)CC3)C2=O)C(=O)N1 (stereo partly drawn) [Compound B178, 3-(1′-((8-(4-((1R,2S)-6-hydroxy-2-phenyl-1,2,3,4-tetrahydronaphthalen-1-yl)phenyl)-1-oxa-8-azaspiro[4.5]decan-2-yl)methyl)-6-oxo-6,8-dihydro-2H,7H-spiro[furo[2,3-e]isoindole-3,4′-piperidin]-7-yl)piperidine-2,6-dione]	> 100	< 1	
O=C1CCC(N2Cc3c(ccc4c3OCC43CCN(CC4CCC5(CC4)CN(c4ccc([C@@H]6c7ccc(O)cc7CC[C@@H]6c6ccccc6)cc4)C5)CC3)C2=O)C(=O)N1 (stereo partly drawn) [Compound B228, 3-(1′-((2-(4-((1R,2S)-6-hydroxy-2-phenyl-1,2,3,4-tetrahydronaphthalen-1-yl)phenyl)-2-azaspiro[3.5]nonan-7-yl)methyl)-6-oxo-6,8-dihydro-2H,7H-spiro[furo[2,3-e]isoindole-3,4′-piperidin]-7-yl)piperidine-2,6-dione]	< 10	1 to 10	
O=C1CCC(N2Cc3cc4c(cc3C2=O)OC[C@@H]2CN(CC(=O)N3CC5(CC(Nc6ccc([C@@H]7c8ccc(O)cc8CC[C@@H]7c7ccccc7)cc6)C5)C3)CCN42)C(=O)N1 (stereo partly drawn) [Compound B153, 3-((S)-3-(2-(6-((4-((1R,2S)-6-hydroxy-2-phenyl-1,2,3,4-tetrahydronaphthalen-1-yl)phenyl)amino)-2-azaspiro[3.3]heptan-2-yl)-2-oxoethyl)-8-oxo-1,2,3,4,4a,5,8,10-octahydro-9H-pyrazino[1′,2′:4,5][1,4]oxazino[2,3-f]isoindol-9-yl)piperidine-2,6-dione]	< 10		< 1
O=C1CCC(N2Cc3cc4c(cc3C2=O)OC[C@@H]2CN(CC(=O)N3CCC5(C3)CN(c3ccc([C@@H]6c7ccc(O)cc7CC[C@@H]6c6ccccc6)cc3)C5)CCN42)C(=O)N1 (stereo partly drawn) [Compound B152, 3-((S)-3-(2-(2-(4-((1R,2S)-6-hydroxy-2-phenyl-1,2,3,4-tetrahydronaphthalen-1-yl)phenyl)-2,6-diazaspiro[3.4]octan-6-yl)-2-oxoethyl)-8-oxo-1,2,3,4,4a,5,8,10-octahydro-9H-pyrazino[1′,2′:4,5][1,4]oxazino[2,3-f]isoindol-9-yl)piperidine-2,6-dione]	< 10		< 1
O=C1CCC(N2Cc3cc4c(cc3C2=O)OC[C@@H]2CN(C(=O)CN3CC5(CCN(c6ccc([C@@H]7c8ccc(O)cc8CC[C@@H]7c7ccccc7)cc6)CC5)C3)CCN42)C(=O)N1 (stereo partly drawn) [Compound B142, 3-((S)-3-(2-(7-(4-((1R,2S)-6-hydroxy-2-phenyl-1,2,3,4-tetrahydronaphthalen-1-yl)phenyl)-2,7-diazaspiro[3.5]nonan-2-yl)acetyl)-8-oxo-1,2,3,4,4a,5,8,10-octahydro-9H-pyrazino[1′,2′: 4,5][1,4]oxazino[2,3-f]isoindol-9-yl)piperidine-2,6-dione]	< 10		< 1
O=C1CCC(N2Cc3cc4c(cc3C2=O)OC[C@@H]2CN(CC(=O)N3CCC5(CC3)CCN(c3ncc([C@@H]6c7ccc(O)cc7CC[C@@H]6c6ccccc6)cn3)CC5)CCN42)C(=O)N1 (mixture of isomers) [Compound B149, 3-((S)-3-(2-(9-(5-(cis-6-hydroxy-2-phenyl-1,2,3,4-tetrahydronaphthalen-1-yl)pyrimidin-2-yl)-3,9-diazaspiro[5.5]undecan-3-yl)-2-oxoethyl)-8-oxo-1,2,3,4,4a,5,8,10-octahydro-9H-pyrazino[1′,2′: 4,5][1,4]oxazino[2,3-f]isoindol-9-yl)piperidine-2,6-dione]	10 to 100	< 1	

Now from value to molecule, other results behind:

DC50 (ER) [nM]	SMILES	IC50 [1] [nM]	IC50 ([1]; T47D cell line) [nM]
10 to 100	O=C1CC[C@H](NC(=O)c2ccc3c(n2)OC[C@H]2CN(CC4CC5(CCN(c6ccc([C@@H]7c8ccc(O)cc8CC[C@@H]7c7ccccc7)cc6)CC5)C4)CCN32)C(=O)N1 [Compound B225, (R)-N-((S)-2,6-dioxopiperidin-3-yl)-3-((7-(4-((1R,2S)-6-hydroxy-2-phenyl-1,2,3,4-tetrahydronaphthalen-1-yl)phenyl)-7-azaspiro[3.5]nonan-2-yl)methyl)-1,2,3,4,4a,5-hexahydropyrazino[1,2-d]pyrido[2,3-b][1,4]oxazine-8-carboxamide]		1 to 10
10 to 100	O=C1CC[C@H](NC(=O)c2ccc(N3CCN(CC4CCN(c5ccc([C@@H]6c7ccc(O)cc7CC[C@@H]6c6ccccc6)cc5)CC4)CC3)cn2)C(=O)N1 [Compound B316, N-((S)-2,6-dioxopiperidin-3-yl)-5-(4-((1-(4-((1R,2S)-6-hydroxy-2-phenyl-1,2,3,4-tetrahydronaphthalen-1-yl)phenyl)piperidin-4-yl)methyl)piperazin-1-yl)picolinamide]		1 to 10
10 to 100	CN(C(=O)c1ccc2c(c1)OC[C@H]1CN(C(=O)CN3CCC4(CC3)CN(c3ccc(C5c6ccc(O)cc6CCC5c5ccccc5)cc3)C4)CCN21)C1CCC(=O)NC1=O (stereo in doubt) [Compound B223, (4aR)-N-(2,6-dioxopiperidin-3-yl)-3-(2-(2-(4-((1S,2R)-6-hydroxy-2-phenyl-1,2,3,4-tetrahydronaphthalen-1-yl)phenyl)-2,7-diazaspiro[3.5]nonan-7-yl)acetyl)-N-methyl-1,2,3,4,4a,5-hexahydrobenzo[b]pyrazino[1,2-d][1,4]oxazine-8-carboxamide]		> 10
10 to 100	O=C1CC[C@H](N2Cc3c(ccc4c3OC[C@H]3CN(CC5COC6(CCN(c7ccc([C@@H]8c9cc(Cl)c(O)cc9CC[C@@H]8c8ccccc8)cc7)CC6)OC5)CCN43)C2=O)C(=O)N1 [Compound B340, (S)-3-((R)-7-((9-(4-((1R,2S)-7-chloro-6-hydroxy-2-phenyl-1,2,3,4-tetrahydronaphthalen-1-yl)phenyl)-1,5-dioxa-9-azaspiro[5.5]undecan-3-yl)methyl)-1-oxo-1,3,5,5a,6,7,8,9-octahydro-2H-pyrazino[1′,2′:4,5][1,4]oxazino[2,3-e]isoindol-2-yl)piperidine-2,6-dione]		1 to 10
< 10	O=C1CCC(N2Cc3cc4c(cc3C2=O)OC[C@@H]2CN(C(=O)CN3CC5(CCN(c6ccc([C@@H]7c8ccc(O)cc8CC[C@@H]7c7ccccc7)cc6)C5)C3)CCN42)C(=O)N1 (stereo partly drawn) [Compound B206, 3-((S)-3-(2-(6-(4-((1R,2S)-6-hydroxy-2-phenyl-1,2,3,4-tetrahydronaphthalen-1-yl)phenyl)-2,6-diazaspiro[3.4]octan-2-yl)acetyl)-8-oxo-1,2,3,4,4a,5,8,10-octahydro-9H-pyrazino[1′,2′:4,5][1,4]oxazino[2,3-f]isoindol-9-yl)piperidine-2,6-dione]		< 1
< 10	O=C1CCC(N2Cc3cc4c(cc3C2=O)CN(CC(=O)N2CCC3(CC2)CCN(c2ccc([C@@H]5c6ccc(O)cc6CC[C@@H]5c5ccccc5)cc2)CC3)C4)C(=O)N1 (stereo partly drawn) [Compound B166, 3-(6-(2-(9-(4-((1R,2S)-6-hydroxy-2-phenyl-1,2,3,4-tetrahydronaphthalen-1-yl)phenyl)-3,9-diazaspiro[5.5]undecan-3-yl)-2-oxoethyl)-1-oxo-3,5,6,7-tetrahydropyrrolo[3,4-f]isoindol-2(1H)-yl)piperidine-2,6-dione]		< 1
> 100	O=C1CCC(N2Cc3c(ccc4c3OC[C@@H]3CN(CC5CCN(c6ccc([C@@H]7c8ccc(O)cc8CC[C@@H]7c7ccccc7)cc6)CC5)CCN43)C2=O)C(=O)N1 (stereo partly drawn) [Compound B306, 3-((S)-7-((1-(4-((1R,2S)-6-hydroxy-2-phenyl-1,2,3,4-tetrahydronaphthalen-1-yl)phenyl)piperidin-4-yl)methyl)-1-oxo-1,3,5,5a,6,7,8,9-octahydro-2H-pyrazino[1′,2′:4,5][1,4]oxazino[2,3-e]isoindol-2-yl)piperidine-2,6-dione]		< 1
10 to 100	O=C1CCC(N2C(=O)c3cc4c(cc3C2=O)CN(CC(=O)N2CCOC3(CCN(c5ccc([C@@H]6c7ccc(O)cc7CC[C@@H]6c6ccccc6)cc5)CC3)C2)C4)C(=O)N1 (stereo partly drawn) [Compound B325, 2-(2,6-dioxopiperidin-3-yl)-6-(2-(9-(4-((1R,2S)-6-hydroxy-2-phenyl-1,2,3,4-tetrahydronaphthalen-1-yl)phenyl)-1-oxa-4,9-diazaspiro[5.5]undecan-4-yl)-2-oxoethyl)-6,7-dihydropyrrolo[3,4-f]isoindole-1,3(2H,5H)-dione]		1 to 10
10 to 100	O=C1CCC(N2Cc3cc4c(cc3C2=O)OC[C@@H]2CN(CC(=O)N3CCC5(CC3)CCN(c3ccc([C@H]6c7ccc8[nH]ncc8c7CC[C@H]6c6ccccc6)cc3)CC5)CCN42)C(=O)N1 (stereo partly drawn) [Compound B390, 3-((S)-8-oxo-3-(2-oxo-2-(9-(4-((6S,7R)-7-phenyl-6,7,8,9-tetrahydro-3H-benzo[e]indazol-6-yl)phenyl)-3,9-diazaspiro[5.5]undecan-3-yl)ethyl)-1,2,3,4,4a,5,8,10-octahydro-9H-pyrazino[1′,2′:4,5][1,4]oxazino[2,3-f]isoindol-9-yl)piperidine-2,6-dione]		> 10
10 to 100	CN(C(=O)c1ccc2c(c1)OC[C@H]1CN(CC3CCN(c4ccc([C@@H]5c6ccc(O)cc6CC[C@@H]5c5ccccc5)cc4)CC3)CCN21)C1CCC(=O)NC1=O (stereo partly drawn) [Compound B255, (4aR)-N-(2,6-dioxopiperidin-3-yl)-3-((1-(4-((1R,2S)-6-hydroxy-2-phenyl-1,2,3,4-tetrahydronaphthalen-1-yl)phenyl)piperidin-4-yl)methyl)-N-methyl-1,2,3,4,4a,5-hexahydrobenzo[b]pyrazino[1,2-d][1,4]oxazine-8-carboxamide]		1 to 10
